Values quoted from earlier work in patent US20080280955A1, “Methods and compositions for screening and treatment of disorders of blood glucose regulation” (Perlegen Sciences, Inc., priority 2005, published 2008).

How the values were obtained:
PPAR-alpha = target: T1, PPAR-alpha (Homo sapiens, UniProt Q07869)
T1 sequence (Q07869 1-468): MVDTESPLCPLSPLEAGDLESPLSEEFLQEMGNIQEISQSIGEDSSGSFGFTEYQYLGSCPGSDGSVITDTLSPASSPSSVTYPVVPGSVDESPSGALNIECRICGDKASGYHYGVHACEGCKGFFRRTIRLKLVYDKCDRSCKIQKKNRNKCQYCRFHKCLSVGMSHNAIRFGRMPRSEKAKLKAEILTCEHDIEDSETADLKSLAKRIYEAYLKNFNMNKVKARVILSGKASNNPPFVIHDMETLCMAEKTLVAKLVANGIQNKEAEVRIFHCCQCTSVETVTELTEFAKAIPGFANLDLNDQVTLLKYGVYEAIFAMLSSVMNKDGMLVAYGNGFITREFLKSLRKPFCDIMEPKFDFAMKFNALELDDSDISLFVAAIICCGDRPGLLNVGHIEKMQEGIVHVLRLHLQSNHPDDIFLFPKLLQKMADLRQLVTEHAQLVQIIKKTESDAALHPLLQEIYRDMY

PPAR-gamma = target: T2, PPAR-gamma (Homo sapiens, UniProt P37231); conditions: context-specific, depends on cell type
T2 sequence (P37231 1-505): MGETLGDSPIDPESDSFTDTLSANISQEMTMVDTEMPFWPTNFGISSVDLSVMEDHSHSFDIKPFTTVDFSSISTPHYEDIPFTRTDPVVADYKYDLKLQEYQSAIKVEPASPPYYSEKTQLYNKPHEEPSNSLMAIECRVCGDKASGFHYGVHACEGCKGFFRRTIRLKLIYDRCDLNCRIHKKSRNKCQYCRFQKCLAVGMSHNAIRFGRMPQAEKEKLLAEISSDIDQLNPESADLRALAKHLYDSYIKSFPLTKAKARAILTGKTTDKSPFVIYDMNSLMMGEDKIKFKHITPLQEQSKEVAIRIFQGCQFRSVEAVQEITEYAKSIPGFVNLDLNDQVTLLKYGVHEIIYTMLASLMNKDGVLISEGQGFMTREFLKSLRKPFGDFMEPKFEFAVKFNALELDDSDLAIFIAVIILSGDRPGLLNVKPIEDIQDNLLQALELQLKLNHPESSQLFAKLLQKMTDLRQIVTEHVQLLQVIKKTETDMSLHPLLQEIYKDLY

PPAR-delta = target: T3, PPAR-delta (Homo sapiens, UniProt Q03181)
T3 sequence (Q03181 1-441): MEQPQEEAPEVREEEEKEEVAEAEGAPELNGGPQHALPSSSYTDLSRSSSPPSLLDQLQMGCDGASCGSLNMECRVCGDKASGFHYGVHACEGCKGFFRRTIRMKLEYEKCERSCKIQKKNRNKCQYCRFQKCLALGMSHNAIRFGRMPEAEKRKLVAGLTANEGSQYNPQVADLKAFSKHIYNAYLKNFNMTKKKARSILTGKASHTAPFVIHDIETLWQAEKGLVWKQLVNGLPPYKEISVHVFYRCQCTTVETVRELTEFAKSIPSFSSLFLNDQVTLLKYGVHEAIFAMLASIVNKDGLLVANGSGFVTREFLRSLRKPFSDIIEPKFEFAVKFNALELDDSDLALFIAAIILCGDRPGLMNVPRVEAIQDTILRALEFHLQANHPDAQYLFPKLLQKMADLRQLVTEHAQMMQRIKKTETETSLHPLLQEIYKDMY

modulation of PPAR-alpha (PPAR-alpha): appears to modulate
modulation of PPAR-delta (PPAR-delta): appears to modulate
Structure (SMILES): O=C1NC(=O)C(Cc2ccc3cc(OCc4ccccc4F)ccc3c2)S1 (centres unmarked) [netoglitazone, 5-[{6-(2-fluorobenzyl)oxy-2-naphthyl}methyl]-2,4-thiazolidinedione]
behaviour at PPAR-gamma (PPAR-gamma): full agonist of PPAR-gamma and as a partial agonist or antagonist in others
efficacy in lowering plasma glucose, insulin, and triglyceride levels (compared with pioglitazone and troglitazone): more efficacious than pioglitazone and troglitazone
potency relative to rosiglitazone (compared with rosiglitazone): about three-fold
